Results from US7879861B2, “Combi-molecules having EGFR and DNA targeting properties” (priority 2005, dated 2011).
Read-outs that look alike come from different tables or passages of the source.

Legend:
[1] = tested on: LNCaPerbB2; experiment: 6 day growth inhibition assay, LNCaP panel; details: Homo sapiens, 144 h, read-out: IC50, LNCaPerbB2 transfected cell line
[2] = molecular target: T1, EGFR (Homo sapiens, UniProt P00533); experiment: EGFR kinase assay (ELISA, PGT substrate phosphorylation); format: biochemical; set-up: endogenous in cells; details: 10 min exposure; read-out: IC50, EGFR inhibitory potency, purified enzyme assay
[3] = tested on: DU145; experiment: Growth inhibition in androgen independent prostate cancer cell line; details: Homo sapiens
[4] = molecular target: T1, EGFR; experiment: EGFR kinase assay (ELISA, PGT substrate phosphorylation); format: biochemical; set-up: endogenous in cells; details: Table 1, inhibition of EGFR kinase; read-out: EGFR Binding
Procedure: Kinase assays: The EGFR kinase assay is similar to the one described in previously published procedures (19, 20). Nunc Maxisorp 96-well plates were incubated overnight at 37° C. with 100 μl/well of 0.25 mg/ml poly (L-glutamic acid-L-tyrosine, 4:1) PGT in PBS. Excess PGT was removed and the plate was washed three times with wash buffer (Tween 20 (0.1%) in PBS). […] The compound was added and phosphorylation initiated by the addition of ATP 50 μM. After 8 min at room temperature with constant shaking, the reaction was terminated by aspiration of the reaction mixture and rinsing the plate four times with wash buffer. […] Antibody was removed by aspiration, and the plate washed four times with wash buffer.

[5] = tested on: A431; experiment: Inhibition of basal growth (Table 1); format: cell-based; details: Homo sapiens, A-431
Procedure: (§1) In vitro growth inhibition assay: To study the effect of the compounds on growth factor stimulated-proliferation, cells were grown to 70% of confluence in 48-well plates. They were subsequently washed twice with PBS, incubated in serum-free medium for 18 h and exposed to each drug+growth factors (EGF, TGFα, PDGF or serum) for 72 h. Cell growth was measured using the sulforhodamine B (SRB) assay (24). Briefly, following drug treatment, cells were fixed using 50 μl of cold trichloroacetic acid (50%) for 60 min at 4° C., washed five times with tap water, and stained for 30 min at room temperature with SRB (0.4%) and dissolved in acetic acid (0.5%). The plates were rinsed five times with 1% acetic acid and allowed to air dry. The resulting colored residue was dissolved in 200 μl of Tris base (10 mM), and the optical density read for each well at 450 nm using a Bio-Rad microplate reader (model 2550). […] Cell growth was measured using SRB assay as described previously.

[6] = tested on: NIH3T3; experiment: Blockade of serum-stimulated growth, SRB assay (Table 1); format: cell-based; details: Mus musculus, read-out: Inhibition of growth stimulation of NIH3T3
Procedure: as §1

[7] = molecular target: T2, NIH3T3neu (UniProt P04626, cells depend on it, species not given); experiment: as above; format: cell-based, mouse; details: serum-stimulated growth; read-out: Inhibition of growth stimulation of NIH3T3neu
T2 construct: other: serum-stimulated growth
Procedure: as §1

[8] = tested on: MDA-MB-468 cells; experiment: Reversibility of antiproliferative effect, SRB assay; format: cell-based, human
Procedure: as §1, with “They were subsequently washed twice with PBS, incubated in serum-free medium for 18 h and exposed to each drug+growth factors (EGF, TGFα, PDGF or serum) for 72 h.” left out

[9] = tested on: NIH3T3; experiment: Growth inhibition in isogenic NIH3T3 panel (double-arm combi-triazenes); format: cell-based; details: Mus musculus, FIG. 14
[10] = Rate of decomposition by fluorescence spectroscopy (formation of amine 1); format: physicochemical; details: excitation 279, emission 451
Procedure: (§2) The degradation of double-arm combi-triazenes 5-9 has been investigated by HPLC. […] The rates of decomposition of bis-triazenes 7, 8 and 9 were measured by fluorescence spectroscopy by monitoring the formation of 1 (excitation: 279 and emission: 451). The determined half-lives ranged from 2 h for 7 and 8 to 3 h 20 min for 9.

[11] = tested on: NIH3T3/Her14; experiment: Growth inhibition in isogenic NIH3T3 panel (double-arm combi-triazenes); format: cell-based, mouse; details: for IC50: Mus musculus, NIH3T3, FIG. 14; for fold selectivity for EGFR transfectant: vs NIH3T3
[12] = tested on: NIH3T3/neu; experiment: as above; format: cell-based, mouse; details: for IC50: Mus musculus, NIH3T3, FIG. 14; for fold selectivity for neu transfectant: vs NIH3T3
[13] = tested on: MDA-MB-468 cells; experiment: Annexin V binding (apoptosis), flow cytometry; format: cell-based, human; details: for levels of apoptosis: 5 μM, 24, 48 and 72 h
Procedure: Annexin V Binding: Cells were grown in 6-well plates until confluence and then incubated with the compounds for 24 h, 48 and 72 h. The cells were then harvested, washed twice with PBS, and centrifuged. Cells (10^5) were treated with annexin V-FITC and propidium iodide (PI) using the Apoptosis Detection Kit (BD Bioscience Pharmingen, USA) and the supplier's protocol. Annexin V-FITC and PI binding were analyzed by flow cytometry. Data were collected using logarithmic amplification of both the FL1 (FITC) and FL2 (PI) channels. Quadrant analysis of co-ordinate dot plots was performed with CellQuest software. Unstained cells were used to adjust the photomultiplier voltage and for compensation setting adjustment in order to eliminate spectral overlap between the FL1 and FL2 signals.

[14] = tested on: MDA-MB-453 cells; experiment: Reversibility of antiproliferative effect, SRB assay; format: cell-based, human
Procedure: as §1, with “They were subsequently washed twice with PBS, incubated in serum-free medium for 18 h and exposed to each drug+growth factors (EGF, TGFα, PDGF or serum) for 72 h.” left out

[15] = Degradation in serum at 37° C. by HPLC; format: in vitro ADME; details: 24 h incubation in serum at 37° C.; release of 2 eq. of amine taken for 100%
Procedure: as §2

[16] = tested on: NIH3T3neu; experiment: Blockade of serum-stimulated growth, SRB assay (Table 1); format: cell-based, mouse; details: FIG. 12, 72 h
Procedure: as §1

[17] = tested on: human breast carcinoma MDA-MB-468; experiment: In vivo efficacy, MDA-MB-468 implanted in the mammary fat pad; set-up: species or system SCID mice
Procedure: In vivo studies: SCID mice were maintained as per McGill animal safety protocols. In a preliminary model, SCID mice housed in filtered cages were implanted subcutaneously (s.c.) with the human breast carcinoma MDA-MB-468 and treatment began when the tumors were palpable (8 mice/group). […] The tumor burdens were measured with a caliper and mice were weighed twice weekly. The study was later repeated with the MDA-MB-468 cells implanted in the mammary fat pad, a model that better mimics human breast carcinoma.

[18] = Water solubility; format: physicochemical
[19] = DU-145, 144 h, read-out: IC50, 6 day continued growth inhibition assay
[20] = DU-145, read-out: IC50, growth inhibition in DU145

T1 sequence (P00533 25-1210): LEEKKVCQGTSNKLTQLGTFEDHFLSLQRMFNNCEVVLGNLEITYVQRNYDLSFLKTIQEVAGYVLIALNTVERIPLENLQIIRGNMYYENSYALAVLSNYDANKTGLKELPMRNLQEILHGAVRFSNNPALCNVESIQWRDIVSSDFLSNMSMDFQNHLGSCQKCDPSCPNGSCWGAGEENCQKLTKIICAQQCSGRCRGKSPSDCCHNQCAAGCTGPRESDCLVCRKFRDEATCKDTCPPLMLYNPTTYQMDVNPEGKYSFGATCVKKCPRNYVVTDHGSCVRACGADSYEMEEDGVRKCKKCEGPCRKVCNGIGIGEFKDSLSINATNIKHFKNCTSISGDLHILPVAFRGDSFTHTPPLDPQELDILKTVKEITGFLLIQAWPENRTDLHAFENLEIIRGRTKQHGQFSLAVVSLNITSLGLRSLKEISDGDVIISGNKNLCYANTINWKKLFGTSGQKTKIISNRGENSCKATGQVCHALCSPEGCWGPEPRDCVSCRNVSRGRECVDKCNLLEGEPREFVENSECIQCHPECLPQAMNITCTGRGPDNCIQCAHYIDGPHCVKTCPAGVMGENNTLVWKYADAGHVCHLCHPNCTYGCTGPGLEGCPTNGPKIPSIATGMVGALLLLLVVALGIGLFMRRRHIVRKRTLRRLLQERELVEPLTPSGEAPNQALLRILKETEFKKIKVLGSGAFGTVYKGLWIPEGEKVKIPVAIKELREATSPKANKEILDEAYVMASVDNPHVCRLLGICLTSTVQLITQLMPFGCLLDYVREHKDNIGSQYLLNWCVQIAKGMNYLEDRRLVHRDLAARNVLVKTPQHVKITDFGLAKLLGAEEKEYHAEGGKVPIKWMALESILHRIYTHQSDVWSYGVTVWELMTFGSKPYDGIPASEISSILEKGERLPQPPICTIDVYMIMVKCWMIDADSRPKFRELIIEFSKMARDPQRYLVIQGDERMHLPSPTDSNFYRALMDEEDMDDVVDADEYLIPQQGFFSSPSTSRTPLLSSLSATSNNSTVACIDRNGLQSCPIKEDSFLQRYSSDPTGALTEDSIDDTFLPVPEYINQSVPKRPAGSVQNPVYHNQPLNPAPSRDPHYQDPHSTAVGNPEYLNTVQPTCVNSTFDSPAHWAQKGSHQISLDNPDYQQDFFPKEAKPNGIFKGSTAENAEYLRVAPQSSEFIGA

Clc1cccc(Nc2ncnc3ccc(N=NNCc4ccc(CNN=Nc5ccc6ncnc(Nc7cccc(Cl)c7)c6c5)cc4)cc23)c1 [Double-arm combi-triazene 6]
IC50 [1]: 37 µM
IC50 [2]: > 10 µM
IC50 [3, 19]: 35 µM

COCCN(C)N=Nc1ccc2ncnc(Nc3cccc(Cl)c3)c2c1 [JFC32]
IC50 [4]: 0.013 µM
IC50 [5]: 23.4 µM
IC50 [6]: 112 µM
GI50 [7]: 1.65 µM

Nc1ccc2ncnc(Nc3cccc(Cl)c3)c2c1 [FD105, reference compound]
IC50 ([8]; MDA-MB-468, SRB, read-out: IC50, growth inhibition, 120 h continuous exposure): 23.6 µM
IC50 ([8]; read-out: IC50, growth inhibition, 2 h exposure followed by 120 h recovery, MDA-MB-468, SRB): 192 µM

CN(CCNN=Nc1ccc2ncnc(Nc3cccc(Cl)c3)c2c1)CCN(C)CCNN=Nc1ccc2ncnc(Nc3cccc(Cl)c3)c2c1 [Double-arm combi-triazene 8]
IC50 [1]: 6 µM
IC50 [9]: 0.1 µM
half-life [10]: 2 h
IC50 [2]: 0.05 µM
IC50 [11]: 0.02 µM
fold more active ([11]; compared with double-arm combi-triazene 9): 20 fold
IC50 [3, 19]: 3.2 µM
IC50 [3, 20]: 1 µM
IC50 [12]: 0.02 µM

C=CC(=O)Nc1ccc2ncnc(Nc3cccc(Br)c3)c2c1 [PD168393, reference compound]
levels of apoptosis [13]: barely detectable levels of apoptosis
IC50 ([14]; Homo sapiens, MDA-MB-453, 120 h, MDA-MB-453, SRB, read-out: IC50, growth inhibition, 120 h continuous exposure): 1.81 µM
IC50 ([14]; Homo sapiens, MDA-MB-453, read-out: IC50, growth inhibition, 2 h exposure followed by 120 h recovery, MDA-MB-453, SRB): 10.3 µM
IC50 ([14]; MDA-MB-453, SRB, read-out: IC50, growth inhibition, 120 h continuous exposure): 1.71 µM
IC50 ([14]; read-out: IC50, growth inhibition, 2 h exposure followed by 120 h recovery, MDA-MB-453, SRB): 11.5 µM

CN(C)CCN(C)N=Nc1ccc2ncnc(Nc3cccc(Cl)c3)c2c1 [JFC30]
IC50 [4]: 0.014 µM
IC50 [5]: 18.9 µM
IC50 [6]: 13.9 µM
GI50 [7]: 1.25 µM

Nc1ccc2ncnc(Nc3cccc(Br)c3)c2c1 [ZR01, reference compound]
levels of apoptosis [13]: barely detectable levels of apoptosis

Clc1cccc(Nc2ncnc3ccc(N=NNCc4ccccc4CNN=Nc4ccc5ncnc(Nc6cccc(Cl)c6)c5c4)cc23)c1 [Double-arm combi-triazene 5]
IC50 [1]: 18 µM
release of parent amine 1 [15]: negligible quantities
IC50 [2]: 7 µM
IC50 [3, 19]: 12 µM

CN(CCNN=Nc1ccc2ncnc(Nc3cccc(Cl)c3)c2c1)CCNN=Nc1ccc2ncnc(Nc3cccc(Cl)c3)c2c1 [Double-arm combi-triazene 9]
IC50 [1]: 11 µM
IC50 [9]: 2.3 µM
IC50 [2]: 0.003 µM
IC50 [11]: 0.5 µM
fold selectivity for EGFR transfectant [11]: 4 fold
IC50 [3, 19]: 2.3 µM
IC50 [3, 20]: 2.6 µM
fold selectivity for neu transfectant [12]: 7 fold

CN(CCOCCN(C)N=Nc1ccc2ncnc(Nc3cccc(Cl)c3)c2c1)N=Nc1ccc2ncnc(Nc3cccc(Cl)c3)c2c1 [JFC31]
IC50 [4]: 0.003 µM
IC50 [5]: 4.79 µM
IC50 [6]: 4.65 µM
selectivity for NIH3T3 HER2 transfected cells in isogenic model [16]: significant selectivity
GI50 [7]: < 0.75 µM

CN(CCN(C)N=Nc1ccc2ncnc(Nc3cccc(Cl)c3)c2c1)N=Nc1ccc2ncnc(Nc3cccc(Cl)c3)c2c1 [JFC16]
IC50 [4]: 0.29 µM
IC50 [6]: 137 µM
GI50 [7]: 23.1 µM

ClCCNc1ccc2ncnc(Nc3cccc(Cl)c3)c2c1 [ZR2003]
in vivo antiproliferative activity ([17]; 50 mg/kg i.p. every 3-4 days, mammary fat pad): strong antiproliferative activity
in vivo potency compared with ZR2002 ([17]; mouse, in vivo): significantly more potent
in vivo potency compared with FD105 ([17]; same dose, p<0.05): significant superior potency
concentration at which detectable levels of apoptosis start [13]: 12 µM
cell death by apoptosis compared with FD105 ([13]; 12 μM, 48 h): significantly higher levels of cell death by apoptosis
IC50 ([8]; Homo sapiens, MDA-MB-468, 120 h, read-out: IC50, growth inhibition, 120 h continuous exposure, MDA-MB-468, SRB): 0.51 µM
IC50 ([8]; Homo sapiens, MDA-MB-468, read-out: IC50, growth inhibition, 2 h exposure followed by 120 h recovery, MDA-MB-468, SRB): 4.81 µM
water solubility (in words) [18]: more hydro-soluble

Clc1cccc(Nc2ncnc3ccc(N=NNCCN4CCN(CCNN=Nc5ccc6ncnc(Nc7cccc(Cl)c7)c6c5)CC4)cc23)c1 [Double-arm combi-triazene 7]
IC50 [1]: 9 µM
IC50 [9]: 44 µM
half-life [10]: 2 h
IC50 [2]: 1 µM
IC50 [11]: 0.5 µM
fold selectivity for EGFR transfectant [11]: 88 fold
IC50 [3, 19]: 1.8 µM
IC50 [3, 20]: 2.8 µM
IC50 [12]: 0.4 µM
fold selectivity for neu transfectant [12]: 110 fold

CN(CCN(C)N=Nc1ccc2ncnc(Nc3cccc(Cl)c3)c2c1)CCN(C)N=Nc1ccc2ncnc(Nc3cccc(Cl)c3)c2c1 [JCF29]
IC50 [4]: 0.036 µM
IC50 [5]: 38.1 µM
IC50 [6]: 186 µM
GI50 [7]: 43.3 µM
